According to PMC8416643 (International Journal for Parasitology: Drugs and Drug …, 2021):
Where “and” joins values, the source holds several entries; their conditions need not be identical. Equal values may be shown once. Entries after “also recorded” stand apart in the source; their conditions may differ. Read-outs that look alike come from different tables or passages of the source.

Key:
[1] = tested on: N. caninum transgenic strain expressing β-galactosidase; test: In vitro proliferation of Nc-β-gal tachyzoites in HFF monolayers (β-galactosidase readout); assay type: cell-based, Neospora caninum; conditions: compound added concomitantly to infection, 72 h
Description: In vitro efficacy assessments of ELQ-316, ELQ-334, ELQ-422, BKI-1748, and respective drug combinations were done using Nc-β-gal ([Barna et al., 2013]; [Schorer et al., 2012]). Briefly, HFF monolayers were cultured in 96-well plates and were infected with 10^3 Nc-β-gal tachyzoites in the presence of ELQ-316, ELQ-334, ELQ-422, and BKI-1748, as well as the combinations of BKI-1748 with each of the three ELQs. All drugs and combinations were prepared as serial dilutions of 20000, 2000, 200, 20, 2, 0.2, 0.02, 0.002 and 0.0002 nM in cell culture medium, respectively. The stock solutions of ELQs as well as the medium were heated up to 37 °C before use. After three days of culture (37 °C/5% CO2) in the presence of compounds, wells were washed with 200 μl PBS, and 90 μl of PBS containing 0.05% Triton X-100 were added into each well. After addition of 10 μl 5 mM chlorophenol red-β-D-galactopyranoside dissolved in PBS, the absorption shift was measured at a wavelength of 570 nm at various time points on an Enspire multilabel reader (Perkin Elmer, Waltham). The half-maximal effective concentrations (EC50 values) were calculated after the logit-log transformation of relative growth and subsequent regression analysis by use of the corresponding software tool contained in the Excel software package (Microsoft, Seattle, WA).

[2] = parameters: method as in Doggett et al., 2020; conditions: ref Doggett et al., 2020; cited from earlier work
BALB/c mice [3] = test: Assessment of potential interference in pregnancy in non-infected BALB/c mice; assay type: in vivo; conditions: ELQs 10 mg/kg, BKI-1748 20 mg/kg; for Fertility: corn oil, gavage, days 9–13 of pregnancy, pregnant/total females
Description: Thirty-six BALB/c female and 18 male mice, six weeks of age were used. […] After mating, males were removed and female mice were randomly allocated to six experimental groups (six mice per group, two females per cage). […] The placebo group received 100 μl corn oil for five consecutive days. […] During the experimental period, mice were examined daily and weighed several times during pregnancy to determine the number of pregnant animals and to detect possible abortions (which would result in rapid weight loss). On day 18 post-mating, pregnant females were separated into individual cages, where they gave birth on days 20–22 post mating. Live and stillborn pups were counted, and dead pups removed. Data on the number of female mice that became pregnant, litter size (number of delivered pups per dam), stillborn mice (dead pups from birth until day two post-partum), post-natal mortality (dead pups from day three post-partum to the end of the experiment), and clinical signs of treated mice were recorded. Dams and live pups were monitored for two weeks after birth to rule out possible adverse effects due to treatments. At the end of the experiment, mice were euthanized in a euthanasia chamber using isoflurane and CO2.

[4] = BKI-1748 and ELQ-316 concentration in BALB/c mouse plasma (LC-MS/MS); assay type: in vivo; conditions: 1 h after final of 5 daily oral doses, ELQs 10 mg/kg, BKI-1748 20 mg/kg
Description: Thirty-six BALB/c female and 18 male mice, six weeks of age were used. Female mice were oestrus synchronized during three days by the Whitten effect ([Whitten, 1957]), and mated for three nights by housing one male with two females. After mating, males were removed and female mice were randomly allocated to six experimental groups (six mice per group, two females per cage). […] The placebo group received 100 μl corn oil for five consecutive days. […] Live and stillborn pups were counted, and dead pups removed. Data on the number of female mice that became pregnant, litter size (number of delivered pups per dam), stillborn mice (dead pups from birth until day two post-partum), post-natal mortality (dead pups from day three post-partum to the end of the experiment), and clinical signs of treated mice were recorded. Dams and live pups were monitored for two weeks after birth to rule out possible adverse effects due to treatments. […]
BKI-1748 and ELQ-316 concentrations in mouse plasma samples were determined as previously described ([Hulverson et al., 2019]; [Imhof et al., 2021]). Briefly, BKI-1748 and ELQ-316 were extracted from plasma using acetonitrile/0.1% formic acid with an internal standard and a standard curve was prepared for quantification. […]

[5] = tested on: N. caninum NcSp-7 tachyzoites; conditions: BKI-1748 20 mg/kg
Description: Ninety BALB/c female mice and 45 male mice, six weeks of age were used in this experiment. Oestrus synchronization and mating was performed as described above. After mating, (day 0) female mice were randomly assigned to seven groups: ELQ-334 (n = 14), ELQ-422 (n = 14), BKI-1748 (n = 14), ELQ-334 + BKI-1748 (n = 14), ELQ-422 + BKI-1748 (n = 14), positive control (corn oil treatment and infection, n = 14), and negative control (corn oil treatment without infection, n = 6). NcSp-7 tachyzoites were transferred from HFF cells to BALB/c dermal fibroblasts and maintained at 37 °C and 5% CO2 three days prior to infection ([Imhof et al., 2021]). On day 7, tachyzoites were harvested and prepared for infection as previously described ([Arranz-Solís et al., 2015]). In brief, tachyzoite-infected fibroblasts were recovered from culture flasks when they were >90% of intracellular tachyzoites still located in parasitophorous vacuoles, and infected cells were repeatedly passed through a 25-gauge needle at 4 °C. […] A sublethal dose of 10^5 tachyzoites in 100 μl were administered to each mouse by subcutaneous injection. The negative control group was inoculated with 100 μl dermal fibroblasts. From two days post-infection (day 9), compounds were administered in 100 μl corn oil on days nine to 13 of pregnancy, calculated after the first day of mating, as follows: ELQ-334 was administered at 5 mg/kg, ELQ-422 at 7.5 mg/kg, and BKI-1748 was administered at 20 mg/kg. The combined treatment groups were: ELQ-334 at 5 mg/kg + BKI-1748 at 20 mg/kg, and ELQ-422 at 7.5 mg/kg + BKI-1748 at 20 mg/kg. The positive and negative controls received 100 μl corn oil for five consecutive days. On day 18, pregnant females were separated into individual cages, they gave birth on days 20–22, and were allowed to rear their pups for 28 days until day 48–50. Live and stillborn pups were counted, and dead pups were removed, and the non-pregnant mice were also monitored during the following 30 days until day 50. Dams and their offspring were evaluated for clinical signs of disease, and data on the number of dams, stillborn pups and those dying postnatally were monitored. All mice were euthanized four weeks post-partum as described above. Blood was collected by cardiac puncture, centrifuged, and serum was stored at −20 °C for subsequent analysis of IgG1 and IgG2a levels by ELISA. Brain was collected and stored at −20 °C prior to further processing.
For the quantification of the brain parasite load in all the mice, a real-time PCR method designed for quantification of N. caninum DNA was employed ([Aguado-Martínez et al., 2019]; [Müller et al., 2002]). DNA extraction and purification were done with the NucleoSpin DNA RapidLyse Kit (Macherey-Nagel, Oensingen, Switzerland) employing the standard protocols. DNA concentrations in all samples were determined using the QuantiFluor double-stranded DNA (dsDNA) system (Promega, Madison, WI, USA) according to the manufacturer's instructions and adjusted to 5 ng/μl with sterile DNase-free water. Quantitative real-time PCR was performed using the Light Cycler (Roche, Basel, Switzerland), and parasite loads calculated with a standard curve of N. caninum DNA samples of 10, 100, and 1000 tachyzoites included in each run.
Levels of IgG1 and IgG2a in N. caninum infected mice were assessed by ELISA as described previously ([Debache et al, 2008], [2009]). Briefly, 96-well plates were coated with 200 ng NcSp-7 soluble tachyzoite protein extract diluted in coating buffer (50 mM sodium bicarbonate; 50 mM sodium carbonate both dissolved in ultrapure water; pH 9.6) per well.

[6] = tested on: N. caninum NcSp-7 tachyzoites; parameters: method as in Anghel et al., 2018; conditions: ref Anghel et al., 2018, cited from earlier work
T. gondii = tested on: T. gondii; parameters: method as in Doggett et al., 2020; Martynowicz et al., 2020; conditions: persistently T. gondii infected mice, ref Doggett et al., 2020, Martynowicz et al.; cited from earlier work
BALB/c mice [7] = conditions: non-infected pregnant BALB/c, five times 10 mg/kg/day, pups from four dams; ref Anghel et al., 2018; cited from earlier work

## COc1cc2[nH]c(C)c(-c3ccc(Oc4ccc(OC(F)(F)F)cc4)cc3)c(=O)c2cc1F [ELQ-316]
[1]
  EC50: 1.55 nM
[2]
  Solubility: low solubility; also recorded: poor solubility

## CCOC(=O)Oc1c(-c2ccc(Oc3ccc(OC(F)(F)F)cc3)cc2)c(C)nc2cc(OC)c(F)cc12 [ELQ-334]
[1]
  EC50: 54.2 nM
BALB/c mice [3]
  Fertility: 2/6
BALB/c mice [3]; listed as ELQ-344
  Fertility: Two of six
BALB/c mice [3]; gavage days 9–13, pups born dead or died within 2 days post-partum
  Neonatal mortality: two out of 11 and 2/11
BALB/c mice [3]; gavage days 9–13, pups that died during days 3–14 post-partum
  Postnatal mortality: 1/9
BALB/c mice [3]; gavage days 9–13 of pregnancy
  Pups per dam: 11/2
[4]; non-pregnant mouse
  Plasma concentration ELQ-316: 11.16 µM and 15.81 µM and 13.24 µM
[4]; pregnant mouse
  Plasma concentration ELQ-316: 12.71 µM and 18.58 µM
[5]; infected dams, ELQ-334 5 mg/kg, ELQ-422 7.5 mg/kg, days 9–13
  Pups: Litter size: 33
[5]; infected dams, ELQ-334 5 mg/kg, ELQ-422 7.5 mg/kg, brains from surviving pups
  Pups: N. caninum PCR positive: 2/29
[5]; infected dams, ELQ-334 5 mg/kg, ELQ-422 7.5 mg/kg, positive control 100%
  Vertical transmission of N. caninum to the pups: 10.3%
[5]; infected dams, ELQ-334 5 mg/kg/day
  Inhibition of vertical transmission / pup infection: > 90%
[5]; infected, ELQ-334 5 mg/kg, ELQ-422 7.5 mg/kg, days 9–13
  Non-pregnant females: Clinical signs: 0/8
[5]; infected, ELQ-334 5 mg/kg, ELQ-422 7.5 mg/kg, days 9–13, pregnant/total females
  Dams: Total no.: 6/14
[6]; 10 mg/kg/day
  Reduction of vertical transmission: 50%
[6]; 10 mg/kg
  Cerebral parasite burden in non-pregnant mice compared to the placebo group: not notably reduced
[6]; N. caninum infected pregnant mice, 10 mg/kg/day, pups from 10 dams
  Neonatal mortality: seven out of 44
T. gondii
  Tissue cysts in the brain: dramatic reduction of tissue cyst in the brain
BALB/c mice [7]
  Neonatal mortality: one out of 27
